How the values were obtained:
[1] = system: Zika virus; experiment: Functional CPE-based assay to measure dose dependent changes in antiviral-drug inhibitory efficacy against Zika virus MR766 in Vero E6 miRFP670 cells. Cells are treated with antiviral candidates that are serially diluted. EC50 is reported via analysis of MTS assay as a readout of CPE. The assay has been performed by KU Leuven.; assay type: organism-based, Chlorocebus sabaeus, Vero C1008; settings: Zika virus
[2] = system: dengue virus type 2; experiment: Functional assay to measure dose dependent changes in antiviral-drug inhibitory efficacy against Dengue virus type 2 New Guinea C in Vero E6 miRFP670 cells (cotreated with P-gp inhibitor, CP100356). Cells are treated with antiviral candidates that are serially diluted, following infection, cells are fixed. EC50 is reported via analysis of fluorescence intensity using high-content imager. The …; assay type: organism-based, Chlorocebus sabaeus, Vero C1008; settings: Dengue virus

## NCc1cccc(NC(=O)c2cc(Cl)cc(C(N)=O)c2)c1
[1]; Vero C1008
  EC50: < 0.391 µM
[1]; Vero C1008, Baseline response 0 %, Hill slope -0.109, Maximum measured 5.527 %, Maximum response 100 %, Minimum measured 1.124 %, R squared 0.046
  EC90: < 0.391 µM
[2]; Vero C1008
  EC50: > 50 µM
[2]; Vero C1008, Maximum measured 162.876 %, Minimum measured 96.337 %, P-gp concentration 500 nM, P-gp inhibitor CP100356
  EC90: > 50 µM

## NCc1cc(NC(=O)c2cc(Cl)cc(NC(=O)OCc3ccccc3)c2)cc([C@@H]2C[C@H]2C(=O)O)c1
[1]; Vero C1008
  EC50: > 50 µM
[1]; Vero C1008, Maximum measured -4.084 %, Minimum measured -7.869 %
  EC90: > 50 µM
[2]; Vero C1008
  EC50: > 12.5 µM
[2]; Vero C1008, Maximum measured 109.098 %, Minimum measured 97.886 %, P-gp concentration 500 nM, P-gp inhibitor CP100356
  EC90: > 12.5 µM

## O=C(Nc1cc(Cl)cc([C@H]2C[C@@H]2c2cccc(C3CCNCC3)c2)c1)OCc1ccccc1
[1]; Vero C1008
  EC50: > 50 µM
[1]; Vero C1008, Maximum measured 2.266 %, Minimum measured -4.892 %
  EC90: > 50 µM
[2]; Vero C1008
  EC50: 1.94 µM
[2]; Vero C1008, Baseline response 0 %, Hill slope -2.737, Maximum measured 87.189 %, Maximum response 100 %, Minimum measured 17.217 %, P-gp concentration 500 nM, R squared 0.653, P-gp inhibitor CP100356
  EC90: > 3.12 µM

## CCNC(=O)Nc1cc(Cl)cc(C(=O)Nc2ccc3c(c2)CNCCO3)c1
[1]; Vero C1008
  EC50: > 50 µM
[1]; Vero C1008, Baseline response 0 %, Hill slope 2.475, Maximum measured 7.686 %, Maximum response 100 %, Minimum measured -0.684 %, R squared 0.693
  EC90: > 50 µM
[2]; Vero C1008
  EC50: > 25 µM
[2]; Vero C1008, Maximum measured 150.987 %, Minimum measured 108.938 %, P-gp concentration 500 nM, P-gp inhibitor CP100356
  EC90: > 25 µM

## NCc1cccc(NC(=O)c2cc(Cl)cc(C3CC3)c2)c1
[1]; Vero C1008
  EC50: 15.7 µM
[1]; Vero C1008, Baseline response 0 %, EC90 CI (lower) 20.759 uM, EC90 CI (upper) 27.074 uM, Hill slope 5.361, Maximum measured 91.947 %, Maximum response 100 %, Minimum measured -3.838 %, R squared 0.99
  EC90: 23.7 µM
[2]; Vero C1008
  EC50: 21.6 µM
  EC90: 24.7 µM

## OCC#C[C@H](Nc1ccc2c(c1)CNC2)c1cc(Cl)cc2[nH]ncc12
[1]; Vero C1008
  EC50: > 50 µM
[1]; Vero C1008, Baseline response 0 %, Hill slope -0.322, Maximum measured 7.802 %, Maximum response 100 %, Minimum measured -1.073 %, R squared 0.225
  EC90: > 50 µM
[1]; Vero C1008, Maximum measured -0.957 %, Minimum measured -6.863 %
  EC90: > 50 µM
[2]; Vero C1008
  EC50: > 50 µM
[2]; Vero C1008, Baseline response 0 %, Hill slope -0.86, Maximum measured 99.542 %, Maximum response 100 %, Minimum measured 57.079 %, P-gp concentration 500 nM, R squared 0.671, P-gp inhibitor CP100356
  EC90: > 50 µM

## NCc1cccc(NC(=O)c2cc(Cl)cc3[nH]ncc23)c1
[1]; Vero C1008
  EC50: > 50 µM
[1]; Vero C1008, Maximum measured 0.74 %, Minimum measured -1.239 %
  EC90: > 50 µM
[2]; Vero C1008
  EC50: > 50 µM
[2]; Vero C1008, Maximum measured 106.767 %, Minimum measured 104.405 %, P-gp concentration 500 nM, P-gp inhibitor CP100356
  EC90: > 50 µM

## O=C(NC1CCCCC1)c1cc(Cl)ccc1NS(=O)(=O)c1ccc(Oc2ccccc2Cl)cc1
[1]; Vero C1008
  EC50: > 50 µM
[1]; Vero C1008, Baseline response 0 %, Hill slope 0.673, Maximum measured 7.428 %, Maximum response 100 %, Minimum measured -1.415 %, R squared 0.499
  EC90: > 50 µM
[2]; Vero C1008
  EC50: 3.2 µM
  EC90: 3.72 µM

## O=C(Nc1cccc(-c2nnn[nH]2)c1)c1cc(Cl)cc(C2CC2)c1
[1]; Vero C1008
  EC50: > 50 µM
[1]; Vero C1008, Maximum measured 1.772 %, Minimum measured -2.796 %
  EC90: > 50 µM
[2]; Vero C1008
  EC50: > 50 µM
[2]; Vero C1008, Maximum measured 109.091 %, Minimum measured 105.083 %, P-gp concentration 500 nM, P-gp inhibitor CP100356
  EC90: > 50 µM

## CC(=O)NCc1cccc(NC(=O)c2cc(Cl)cc(NC(=O)OCc3ccccc3)c2)c1
[1]; Vero C1008
  EC50: > 50 µM
[1]; Vero C1008, Baseline response 0 %, Hill slope 0.809, Maximum measured 24.23 %, Maximum response 100 %, Minimum measured -4.371 %, R squared 0.519
  EC90: > 50 µM
[2]; Vero C1008
  EC50: 10.4 µM
[2]; Vero C1008, Baseline response 0 %, EC90 CI (lower) 4.143 uM, EC90 CI (upper) 6.94 uM, Hill slope -3.293, Maximum measured 105.977 %, Maximum response 100 %, Minimum measured 1.058 %, P-gp concentration 500 nM, R squared 0.979, P-gp inhibitor CP100356
  EC90: 20.4 µM

## CNC(=O)[C@H](Nc1cc(CN)cc(C(=O)O)c1)c1cc(Cl)cc(NC(=O)OCc2ccccc2)c1
[1]; Vero C1008
  EC50: > 50 µM
[1]; Vero C1008, Baseline response 0 %, Hill slope -2.362, Maximum measured 1.225 %, Maximum response 100 %, Minimum measured -2.193 %, R squared 0.027
  EC90: > 50 µM
[2]; Vero C1008
  EC50: > 50 µM
[2]; Vero C1008, Maximum measured 124.943 %, Minimum measured 103.159 %, P-gp concentration 500 nM, P-gp inhibitor CP100356
  EC90: > 50 µM

## O=C(Nc1cc(Cl)cc(C(=O)Nc2ccc3c(c2)CNCC3)c1)OCc1ccccc1
[1]; Vero C1008
  EC50: < 0.391 µM
[1]; Vero C1008, Baseline response 0 %, Hill slope -0.286, Maximum measured 50.319 %, Maximum response 100 %, Minimum measured -3.545 %, R squared 0.037
  EC90: < 0.391 µM
[2]; Vero C1008
  EC50: 1.52 µM
  EC90: 1.8 µM

Source: ChEMBL document CHEMBL5661943, “ASAP - In vitro antiviral effect” (2024)
